Consider two compounds from ChEMBL document CHEMBL1126408, “CP-70,030 and CP-75,998: The first non-peptide antagonists of bombesin and gastrin releasing peptide” (Bioorg Med Chem Lett, 1992).

Active and inactive are the calls of the source. No cut-off for these calls is given here.

For assay [1], the target named is Gastrin-releasing peptide receptor (Rattus norvegicus, UniProt P52500). The experiment in a line: Compound was evaluated for displacement of radiolabeled [I-125]GRP from rat brain receptor; 1.5-3 uM.
Sequence of Gastrin-releasing peptide receptor (P52500 whole entry): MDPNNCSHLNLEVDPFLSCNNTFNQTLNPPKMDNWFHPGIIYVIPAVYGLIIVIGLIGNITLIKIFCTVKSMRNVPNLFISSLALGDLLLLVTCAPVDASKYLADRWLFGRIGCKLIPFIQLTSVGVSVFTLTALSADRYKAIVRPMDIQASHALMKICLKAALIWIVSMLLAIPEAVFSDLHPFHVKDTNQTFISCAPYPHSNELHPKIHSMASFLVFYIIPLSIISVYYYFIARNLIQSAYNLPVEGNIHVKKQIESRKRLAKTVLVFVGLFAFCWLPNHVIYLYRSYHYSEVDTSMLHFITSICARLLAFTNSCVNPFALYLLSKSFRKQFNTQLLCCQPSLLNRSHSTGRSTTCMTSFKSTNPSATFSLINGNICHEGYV
For assay [2], the species on record is Rattus norvegicus. The assay is described as follows: Agonistic activity up to a conc 30 uM measured as elevation of inositol phosphate production in absence of bombesin in rat pituitary GH3 cells; NA is no measurable agonist activity. Format: functional, cell-based.
The species named for assay [3] is Rattus norvegicus. The assay is described as follows: Antagonistic activity as a measure of bombesin-induced phosphoinositide turnover in rat pituitary GH3 cells; 1.5-3 uM. It counts as functional, cell-based.
In assay [4] the target is Gastrin-releasing peptide receptor (Homo sapiens) (UniProt P30550). The assay is described as follows: Compound up to a conc of 32 uM was tested for displacement of radiolabeled GRP from its receptors on bombesin-responsive human SCLC cell line N592; […].
Sequence of Gastrin-releasing peptide receptor (Homo sapiens) (P30550 whole entry, looked up): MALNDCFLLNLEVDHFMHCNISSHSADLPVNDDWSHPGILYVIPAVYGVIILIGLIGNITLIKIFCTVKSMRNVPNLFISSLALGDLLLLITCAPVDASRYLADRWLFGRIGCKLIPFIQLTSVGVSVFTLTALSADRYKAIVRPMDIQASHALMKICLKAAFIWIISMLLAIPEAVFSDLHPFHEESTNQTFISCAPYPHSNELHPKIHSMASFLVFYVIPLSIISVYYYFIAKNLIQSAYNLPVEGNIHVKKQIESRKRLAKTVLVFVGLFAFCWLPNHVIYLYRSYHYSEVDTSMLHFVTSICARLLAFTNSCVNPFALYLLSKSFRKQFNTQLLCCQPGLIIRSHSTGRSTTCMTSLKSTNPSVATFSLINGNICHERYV

Consider `O=C1NC(=O)C2(N1)C(=O)N(Cc1ccc(Cl)c(Cl)c1)c1ncc(Br)cc12` (stereo not drawn), for which the IC50 (in assay [1]; in the assay listed under Rattus norvegicus [3]) was 1500 nM in each case. For the same compound, the outcome (in the assay listed under Rattus norvegicus [2]; in assay [4]) was inactive.

In the case of `CCN1C(=O)/C(=C/c2cc(C(C)(C)C)c(O)c(C(C)(C)C)c2)c2cc(OCc3ccccc3C(=O)O)ccc21`, the IC50 (in assay [1]; in the assay listed under Rattus norvegicus [3]) was 1500 nM in each case. Moreover, the result (in the assay listed under Rattus norvegicus [2]; in assay [4]) was inactive.
